Reference: patent US8937039B2, “Peptide-based peroxidase inhibitors and methods of using same” (The Medical College of Wisconsin, Inc., priority 2009, dated 2015)
Residues, ends and D or L forms follow the SMILES beside them.

Columns and labels:
[1] = test system: SCD mice; experiment: Vasodilatation of pressurized facialis arteries from SCD mice treated in vivo; parameters: species or system mouse; conditions: KYC, three weeks
Experimental: Murine Model of Sickle Cell Disease. Mice treated with KYC in vivo. SCD mice were treated with KYC (intraperitoneal injection: IP 0.3 mg/kg/d) or with PBS (IP 100 μL) for 3 weeks. Anesthesia was induced with Ketamine (100 mg/kg)+Xylazine (10 mg/kg) cocktail (ip) and then sacrificed by exsanguination. Facialis arteries were atraumatically dissected and maintained in cooled MOPS solution (in mM: NaCl 145, KCL 4.7, CaCl2 2, NaH2PO4 1.2, MgSO4, 1.2, pyruvate 2, EDTA 0.02, MOPS 3.0, and glucose 5.0, at pH 7.4). Vessels were then submerged in a MOPS bath, mounted on MOPS-containing glass capillary tubes, internally pressurized (60 mmHg), and warmed to 37° C. Internal vascular diameters were measured with a calibrated video-microscope (Boeckeler). After the vessel was allowed to acclimate to 37° C. (approximately 30 min), the diameter was measured and recorded (Dmax). […] A control dose-response curve using acetylcholine (ACh, 10^−7-10^−4 M) was performed and vessel diameter recorded. […] Vasodilation to papaverine ([…]) was determined after all treatments to ensure smooth muscle viability. Vasodilation was calculated as a percent of maximal vessel diameter change.
Vasodilatation. […] Physiological responses to increasing concentrations of acetylcholine (ACh) were determined by videomicroscopy as previously described.

[2] = test system: C57BL/6J mice; experiment: Pulmonary retention of Q-dot labeled EMPs (acute lung injury); type: in vivo, mouse; conditions: pretreatment and treatment with KYC
Experimental: KYC Inhibits Acute Lung Injury. Inflammation and sepsis induce the release of endothelial cell microparticles (EMPs). Increased production of EMPs is hypothesized to play a causal role in the mechanisms mediating acute lung injury (ALI). To test this hypothesis, the inventors incubated human umbilical vein endothelial cells with PAI-1, which is well-recognized for inducing endothelial cells to generate EMPs. The EMPs were collected by ultracentrifugation, resuspended in physiological saline solution and then labeled with Q-dots. The Q-dot labeled EMPs were counted and then injected into C57BL/6J mice to achieve a final concentration of 100,000 EMPs/mL of blood. Mice were pretreated with phosphate buffered saline (FIG. 6) or KYC and then were injected with Q-dot labeled EMPs alone or Q-dot labeled EMPs plus KYC (FIG. 6).

[3] = test system: lung cancer mice; experiment: BHT-treated lung cancer mice (BALF activities, tumor number); type: in vivo, mouse
Experimental: Inhibiting MPO decreases PMN degranulation in lung cancer mice. PMNs are considered to play a causal role in initiating tumor formation. Effects of KYC on PMN recruitment and tumor formation in lung cancer mice were determined. Briefly, mice were treated with BHT (single dose: 300 mg/kg) and KYC (0.3 mg/kg/d).

[4] = molecular target: T1, MPO (Homo sapiens, UniProt P05164); experiment: MPO-mediated nitration of LDL (dot blot); type: biochemical; parameters: purchased Lee Biosolutions (St. Louis, Mo.); conditions: MPO 50 nM, H2O2 50 μM, NaNO2 50 μM, 37° C., 4 h
T1 sequence (P05164 49-745): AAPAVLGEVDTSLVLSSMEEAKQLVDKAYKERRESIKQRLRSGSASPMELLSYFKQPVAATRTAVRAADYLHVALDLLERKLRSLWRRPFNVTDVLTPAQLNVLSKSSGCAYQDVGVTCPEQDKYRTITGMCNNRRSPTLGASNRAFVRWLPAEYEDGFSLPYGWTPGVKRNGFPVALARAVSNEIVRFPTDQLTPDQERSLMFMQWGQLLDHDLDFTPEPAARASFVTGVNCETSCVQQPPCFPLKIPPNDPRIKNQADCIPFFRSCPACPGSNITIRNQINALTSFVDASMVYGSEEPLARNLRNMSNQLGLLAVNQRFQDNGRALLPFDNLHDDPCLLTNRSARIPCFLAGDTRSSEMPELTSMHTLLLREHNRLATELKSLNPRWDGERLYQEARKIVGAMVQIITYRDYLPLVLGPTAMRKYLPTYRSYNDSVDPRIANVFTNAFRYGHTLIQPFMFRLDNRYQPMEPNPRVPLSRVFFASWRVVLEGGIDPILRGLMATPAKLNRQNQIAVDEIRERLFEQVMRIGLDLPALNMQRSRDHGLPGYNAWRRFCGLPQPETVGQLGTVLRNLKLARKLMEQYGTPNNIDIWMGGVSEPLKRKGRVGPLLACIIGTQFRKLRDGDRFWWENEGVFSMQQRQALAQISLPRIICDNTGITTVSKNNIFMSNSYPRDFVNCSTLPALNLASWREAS
Experimental: MPO-mediated Nitration of LDL: LDL (0.5 mg/mL) was incubated with MPO (50 nM), H2O2 (50 μM), NaNO2 (50 μM) and increasing concentrations of KYC in phosphate buffer (100 mM, pH 7.4) containing DTPA (100 μM) at 37° C. for 4 h. Reactions were stopped by addition of catalase (2,000 units/mL). Formation of NO2Tyr was assessed by dot blot analysis. Briefly, LDL solutions were mixed with 1% SDS and centrifuged (12000 g, 15 min) Aliquots of supernatants were applied to a nitrocellulose membrane with a dot blot apparatus (Biorad model: Bio-Dot). The levels of NO2Tyr were visualized using a rabbit polyclonal anti-NO2Tyr antibody (EMD, Gibbstown, N.J.) and the ECL plus kit from Thermo-Peirce (Rockford, Ill.).

[5] = BHT 300 mg/kg single dose, KYC 0.3 mg/kg/d, after 3 days

NO2Tyr in LDL (in words) [4]: markedly reduces
Structure (SMILES): CC(=O)N[C@@H](CCCCN)C(=O)N[C@@H](Cc1ccc(O)cc1)C(=O)N[C@@H](CS)C(N)=O [KYC, N-acetyl Lysyltyrosylcysteine Amide] (Ac-Lys-Tyr-Cys-NH2)
Endothelium- and eNOS-dependent vasodilatation (in words) [1]: dramatically increases
Pulmonary retention of Q-dot labeled EMPs (in words) [2]: dramatically decreases
Decrease of the number of tumors vs untreated mice ([3]; 6 weeks of KYC treatment, p=0.02): ~50%
Elastase activity in BALF (in words) [3, 5]: significantly decreased
MPO activity in BALF (in words) [3, 5]: significantly decreased
PMN number in BALF (in words) [3, 5]: did not reduce
